Organism: Rattus norvegicus
Experiment: Open TG-GATES - Regimen: Single
Type: toxicity, organism-based, Sprague-Dawley
Parameters: regimen Single, gender Male, age 6 weeks
Details: in vivo, po, route gavage; for APTT / Bas / Eos / Fbg / Hb / Ht / Lym / MCH / MCHC / MCV / Mono / Neu / PT / Plat / RBC / Ret / WBC: tissue Blood; for KIDNEY_L / KIDNEY_R / KIDNEY_TOTAL: tissue Kidney; for LIVER: tissue Liver
[1] = 0 mg/kg, 24 h, tissue Plasma, dose level Control
[2] = 300 mg/kg, 3 h, tissue Plasma, dose level Low
[3] = 300 mg/kg, 6 h, tissue Plasma, dose level Low
[4] = 300 mg/kg, 9 h, tissue Plasma, dose level Low
[5] = 300 mg/kg, 24 h, dose level Low
[6] = 300 mg/kg, 24 h, tissue Plasma, dose level Low

Compound: O=C(O)c1ccccc1Nc1ccccc1 [FENAMIC ACID]
- RALB [1]: 2.7 g/dL
- TBIL [1]: 0.034 mg/dL
- TC [1]: 77.6 mg/dL
- TG [1]: 82.6 mg/dL
- TP [1]: 5.6 g/dL
- gamma-GTP [1]: 1 IU/L
- TERMINAL_BW (300 mg/kg, 3 h, dose level Low): 209.1 g
- APTT (300 mg/kg, 3 h, dose level Low): 16.8 s
- Bas (300 mg/kg, 3 h, dose level Low): 0.8%
- Eos (300 mg/kg, 3 h, dose level Low): 0.8%
- Fbg (300 mg/kg, 3 h, dose level Low): 249.8 mg/dL
- Hb (300 mg/kg, 3 h, dose level Low): 13.2 g/dL
- Ht (300 mg/kg, 3 h, dose level Low): 40%
- Lym (300 mg/kg, 3 h, dose level Low): 79.8%
- MCH (300 mg/kg, 3 h, dose level Low): 20.5 pg
- MCHC (300 mg/kg, 3 h, dose level Low): 33%
- MCV (300 mg/kg, 3 h, dose level Low): 62.3 fL
- Mono (300 mg/kg, 3 h, dose level Low): 2.2%
- Neu (300 mg/kg, 3 h, dose level Low): 16.2%
- PT (300 mg/kg, 3 h, dose level Low): 14.3 s
- Plat (300 mg/kg, 3 h, dose level Low): 113.6 x10_4/uL
- RBC (300 mg/kg, 3 h, dose level Low): 642.2 x10_4/ul
- Ret (300 mg/kg, 3 h, dose level Low): 8.8%
- WBC (300 mg/kg, 3 h, dose level Low): 95.7 x10_2/uL
- KIDNEY_L (300 mg/kg, 3 h, dose level Low): 1 g
- KIDNEY_R (300 mg/kg, 3 h, dose level Low): 0.9 g
- KIDNEY_TOTAL (300 mg/kg, 3 h, dose level Low): 1.9 g
- LIVER (300 mg/kg, 3 h, dose level Low): 8.2 g
- A/G [2]: 0.9
- ALP [2]: 1661.4 IU/L
- ALT [2]: 38.2 IU/L
- AST [2]: 73.4 IU/L
- BUN [2]: 12.4 mg/dL
- CRE [2]: 0.2 mg/dL
- Ca [2]: 11.1 mg/dL
- Cl [2]: 107.2 meq/L
- GLC [2]: 187.4 mg/dL
- IP [2]: 9.6 mg/dL
- K [2]: 4.4 meq/L
- LDH [2]: 78.4 IU/L
- Na [2]: 144.4 meq/L
- PL [2]: 124.6 mg/dL
- RALB [2]: 2.5 g/dL
- TC [2]: 67.4 mg/dL
- TG [2]: 93.4 mg/dL
- TP [2]: 5.4 g/dL
- gamma-GTP [2]: 1 IU/L
- TERMINAL_BW (300 mg/kg, 6 h, dose level Low): 201.5 g
- APTT (300 mg/kg, 6 h, dose level Low): 16.7 s
- Bas (300 mg/kg, 6 h, dose level Low): 0.6%
- Eos (300 mg/kg, 6 h, dose level Low): 0.8%
- Fbg (300 mg/kg, 6 h, dose level Low): 248.8 mg/dL
- Hb (300 mg/kg, 6 h, dose level Low): 13.5 g/dL
- Ht (300 mg/kg, 6 h, dose level Low): 40.6%
- Lym (300 mg/kg, 6 h, dose level Low): 74.6%
- MCH (300 mg/kg, 6 h, dose level Low): 20.9 pg
- MCHC (300 mg/kg, 6 h, dose level Low): 33.3%
- MCV (300 mg/kg, 6 h, dose level Low): 62.9 fL
- Mono (300 mg/kg, 6 h, dose level Low): 2.4%
- Neu (300 mg/kg, 6 h, dose level Low): 21.4%
- PT (300 mg/kg, 6 h, dose level Low): 14.5 s
- Plat (300 mg/kg, 6 h, dose level Low): 114.4 x10_4/uL
- RBC (300 mg/kg, 6 h, dose level Low): 645.8 x10_4/ul
- Ret (300 mg/kg, 6 h, dose level Low): 8%
- WBC (300 mg/kg, 6 h, dose level Low): 96.1 x10_2/uL
- KIDNEY_L (300 mg/kg, 6 h, dose level Low): 0.9 g
- KIDNEY_R (300 mg/kg, 6 h, dose level Low): 0.9 g
- KIDNEY_TOTAL (300 mg/kg, 6 h, dose level Low): 1.8 g
- LIVER (300 mg/kg, 6 h, dose level Low): 7.3 g
- A/G [3]: 0.9
- ALP [3]: 1342.6 IU/L
- ALT [3]: 38.4 IU/L
- AST [3]: 73 IU/L
- BUN [3]: 8.8 mg/dL
- CRE [3]: 0.2 mg/dL
- Ca [3]: 10.7 mg/dL
- Cl [3]: 107.4 meq/L
- GLC [3]: 152.8 mg/dL
- IP [3]: 9.9 mg/dL
- K [3]: 3.9 meq/L
- LDH [3]: 66.6 IU/L
- Na [3]: 144.2 meq/L
- PL [3]: 116.8 mg/dL
- RALB [3]: 2.5 g/dL
- TC [3]: 58.6 mg/dL
- TG [3]: 38.8 mg/dL
- TP [3]: 5.3 g/dL
- gamma-GTP [3]: 1.2 IU/L
- TERMINAL_BW (300 mg/kg, 9 h, dose level Low): 205.1 g
- APTT (300 mg/kg, 9 h, dose level Low): 17.9 s
- Bas (300 mg/kg, 9 h, dose level Low): 0.6%
- Eos (300 mg/kg, 9 h, dose level Low): 1%
- Fbg (300 mg/kg, 9 h, dose level Low): 262.6 mg/dL
- Hb (300 mg/kg, 9 h, dose level Low): 13.5 g/dL
- Ht (300 mg/kg, 9 h, dose level Low): 40.6%
- Lym (300 mg/kg, 9 h, dose level Low): 71.8%
- MCH (300 mg/kg, 9 h, dose level Low): 20.9 pg
- MCHC (300 mg/kg, 9 h, dose level Low): 33.1%
- MCV (300 mg/kg, 9 h, dose level Low): 63.2 fL
- Mono (300 mg/kg, 9 h, dose level Low): 2%
- Neu (300 mg/kg, 9 h, dose level Low): 24.4%
- PT (300 mg/kg, 9 h, dose level Low): 14.9 s
- Plat (300 mg/kg, 9 h, dose level Low): 116.7 x10_4/uL
- RBC (300 mg/kg, 9 h, dose level Low): 642.8 x10_4/ul
- Ret (300 mg/kg, 9 h, dose level Low): 7.8%
- WBC (300 mg/kg, 9 h, dose level Low): 78.3 x10_2/uL
- KIDNEY_L (300 mg/kg, 9 h, dose level Low): 0.9 g
- KIDNEY_R (300 mg/kg, 9 h, dose level Low): 0.9 g
- KIDNEY_TOTAL (300 mg/kg, 9 h, dose level Low): 1.8 g
- LIVER (300 mg/kg, 9 h, dose level Low): 7.2 g
- A/G [4]: 0.9
- ALP [4]: 1734.8 IU/L
- ALT [4]: 35 IU/L
- AST [4]: 69.6 IU/L
- BUN [4]: 13.4 mg/dL
- CRE [4]: 0.2 mg/dL
- Ca [4]: 10.9 mg/dL
- Cl [4]: 108 meq/L
- GLC [4]: 149 mg/dL
- IP [4]: 11 mg/dL
- K [4]: 3.8 meq/L
- LDH [4]: 60.6 IU/L
- Na [4]: 146 meq/L
- PL [4]: 121.6 mg/dL
- RALB [4]: 2.6 g/dL
- TC [4]: 59.4 mg/dL
- TG [4]: 39.8 mg/dL
- TP [4]: 5.5 g/dL
- gamma-GTP [4]: 1.2 IU/L
- TERMINAL_BW [5]: 218.8 g
- APTT [5]: 17.6 s
- Bas [5]: 0.6%
- Eos [5]: 0.6%
- Fbg [5]: 269.2 mg/dL
- Hb [5]: 13.3 g/dL
- Ht [5]: 40.1%
- Lym [5]: 80.6%
- MCH [5]: 20.9 pg
- MCHC [5]: 33.1%
- MCV [5]: 63.2 fL
- Mono [5]: 2.6%
- Neu [5]: 15%
- PT [5]: 14.4 s
- Plat [5]: 121.2 x10_4/uL
- RBC [5]: 634.4 x10_4/ul
- Ret [5]: 7.4%
- WBC [5]: 115.6 x10_2/uL
- KIDNEY_L [5]: 1 g
- KIDNEY_R [5]: 1 g
- KIDNEY_TOTAL [5]: 2 g
- LIVER [5]: 10.2 g
- A/G [6]: 0.9
- ALP [6]: 1785.8 IU/L
- ALT [6]: 38.6 IU/L
- AST [6]: 71.2 IU/L
- BUN [6]: 14 mg/dL
- CRE [6]: 0.2 mg/dL
- Ca [6]: 11.2 mg/dL
- Cl [6]: 105.6 meq/L
- GLC [6]: 173.4 mg/dL
- IP [6]: 6.9 mg/dL
- K [6]: 4 meq/L
- LDH [6]: 130.6 IU/L
- Na [6]: 144.2 meq/L
- PL [6]: 143.2 mg/dL
- RALB [6]: 2.6 g/dL

Reference: ChEMBL document CHEMBL3885861, “Open TG-GATES”
